Laboratory results taken from US6583127B1, “Use of etherlysophospholipids as antiinflammatory agents” (Inkeysa. SA, priority 1998, dated 2003).
pIC50: −log10 of the molar value.

What was measured:
CD11b = assay: Cell surface expression of CD11b in human neutrophils (immunofluorescence flow cytometry); type: cell-based; conditions: Medium = 100
Description: (§1) Isolation and treatment of neutrophils.
(§2) Monoclonal antibodies. […] The antibodies are commercially available.
(§3) Immunofluorescence flow cytometry. […] Results were expressed as relative MFI (rMFI), such that
(§4) rMFI=(MFIagent×100)/MFImedium
(§5) Background fluorescence was substracted from all values.

CD43 = assay: Cell surface expression of CD43 in human neutrophils (immunofluorescence flow cytometry); type: cell-based; conditions: Medium = 100
Description: as §1, §2, §3, §4, §5

CD44 = assay: Cell surface expression of CD44 in human neutrophils (immunofluorescence flow cytometry); type: cell-based; conditions: Medium = 100
Description: as §1, §2, §3, §4, §5

L-selectin (CD62L) = assay: Cell surface expression of L-selectin in human neutrophils (immunofluorescence flow cytometry); type: cell-based; conditions: for L-Selectin cell surface expression (rMFI): Medium = 100
Description: as §1, §2, §3, §4, §5

neutrophils = assay: Toxicity for neutrophils; type: cell-based, human
Description: as §1

phospholipase A2 (PLA2) = assay: [3H]arachidonic acid release as assay for PLA2 activity; type: cell-based; conditions: FIG. 10
Protocol: Measurement of arachidonic acid release. Arachidonic acid release was measured as an assay for phospholipase A2 (PLA2) activity, because this enzyme activity constitutes the major pathway controlling arachidonic acid release. Cells (5×10^5/ml) were labeled overnight with 0.1 μCi of [^3H]arachidonic acid/ml in RPMI-1640 culture medium containing 10% fetal calf serum. Then cells were washed four times with culture medium, and cells were resuspended in […] culture medium in the absence of serum in the absence (control) or in the presence of distinct agents for the times indicated in the respective figures. After this period, cells were pelleted by centrifugation and supernatants were transferred to scintillation vials and counted for radioactivity. Results are shown as cpm of labelled arachidonic acid released to the extracellular medium.

[1] = system: experimental colitis induced by TNB (2,4,6-trinitrobenzenesulphonic acid); assay: Rat model of experimental colitis induced by TNB, macroscopic evaluation; type: in vivo; parameters: Wet Weight (colon): unit not given beside the values; conditions: Wistar rat; for Wet Weight (colon) / Sample 2 × 6 mm / Score (0-10) / Weight/mm: Mean ± SEM
Protocol: The therapeutic potential for the treatment of ulcerative colitis of IEC01 at 2.5 and 5 mg/kg and IES01 at 2.5 mg/kg, was evaluated after their administration by oral route during 14 days (7 days of preventive treatment and 7 days of therapeutic treatment) using the rat model of experimental colitis induced by TNB (2,4,6-trinitrobenzenesulphonic acid). As reference parameters, the body weight, wet colon weight and score macroscopic evaluation were evaluated after 24 hours and after 7 days of the intraluminal administration of TNB in the colon. […] The inflammatory response is recognised by the presence of ulcerative fissures, faecal shatters and inflammation of bowel wall. A chronic inflammatory response was observed 7 days after the administration. An erratic response with lineal or punctual ulcers, necrosis, faecal shatters, reduction of colonic lumen, granulomas and peritoneal adherence was observed.

[2] = Body weight evaluation in the TNB colitis rat model; type: in vivo; conditions: Wistar rat, Mean ± SEM
Protocol: The therapeutic potential for the treatment of ulcerative colitis of IEC01 at 2.5 and 5 mg/kg and IES01 at 2.5 mg/kg, was evaluated after their administration by oral route during 14 days (7 days of preventive treatment and 7 days of therapeutic treatment) using the rat model of experimental colitis induced by TNB (2,4,6-trinitrobenzenesulphonic acid). As reference parameters, the body weight, wet colon weight and score macroscopic evaluation were evaluated after 24 hours and after 7 days of the intraluminal administration of TNB in the colon.

[3] = 2.5 mg/Kg p.o., after 24 hours of intraluminal administration
[4] = 2.5 mg/Kg p.o., after 7 days of intraluminal administration
[5] = 5.0 mg/Kg p.o., after 24 hours of intraluminal administration
[6] = 5.0 mg/Kg p.o., after 7 days of intraluminal administration

Question: What does the source list for `CCCCCCCCCCCCCCCCCCOCC(COP(=O)([O-])OCC[N+](C)(C)C)OC` (centres unmarked) [IEC01, Edelfosine]?
Answer: CD11b cell surface expression (rMFI) (CD11b; 10 ng/ml, rMFI=(MFIagent×100)/MFImedium): 97.5 ± 8.5; CD11b cell surface expression (rMFI) (CD11b; 100 ng/ml): 101 ± 3; CD11b cell surface expression (rMFI) (CD11b; 500 ng/ml): 103 ± 3; CD11b cell surface expression (rMFI) (CD11b; 1 μg/ml): 105 ± 6; CD11b cell surface expression (rMFI) (CD11b; 5 μg/ml): 130 ± 15; CD43 cell surface expression (rMFI) (CD43; 10 ng/ml): 87.5 ± 2.5; CD43 cell surface expression (rMFI) (CD43; 100 ng/ml): 63 ± 8; CD43 cell surface expression (rMFI) (CD43; 500 ng/ml): 53 ± 5; CD43 cell surface expression (rMFI) (CD43; 1 μg/ml): 33 ± 8; CD43 cell surface expression (rMFI) (CD43; 5 μg/ml): 28 ± 7; CD44 cell surface expression (rMFI) (CD44; 10 ng/ml): 97 ± 2; CD44 cell surface expression (rMFI) (CD44; 100 ng/ml): 84 ± 4; CD44 cell surface expression (rMFI) (CD44; 500 ng/ml): 75 ± 7; CD44 cell surface expression (rMFI) (CD44; 1 μg/ml): 48 ± 9; CD44 cell surface expression (rMFI) (CD44; 5 μg/ml): 40 ± 8; times more effective than aceclofenac in promoting L-selectin down-regulation (L-selectin (CD62L); after correcting for the different molecular weights): 100 times; pIC50 (L-selectin (CD62L); converted from μg/ml values, read-out: IC50 for L-selectin down-regulation, corrected for molecular weight): 6.71; concentration at which L-selectin reduction reaches a maximum (L-selectin (CD62L); human neutrophils): 1 µg/mL; IC50 for L-selectin down-regulation (L-selectin (CD62L); human neutrophils (FIG. 1)): about 0.1 μg/ml; time for decrease in cell surface L-selectin content to reach a maximum (L-selectin (CD62L); human neutrophils (data not shown)): ≤ 5 min; L-Selectin cell surface expression (rMFI) (L-selectin (CD62L); human neutrophils, 10 ng/ml): 83.5 ± 4; L-Selectin cell surface expression (rMFI) (L-selectin (CD62L); human neutrophils, 100 ng/ml): 56 ± 6; L-Selectin cell surface expression (rMFI) (L-selectin (CD62L); human neutrophils, 500 ng/ml): 35 ± 5.5; L-Selectin cell surface expression (rMFI) (L-selectin (CD62L); human neutrophils, 1 μg/ml): 18 ± 6; L-Selectin cell surface expression (rMFI) (L-selectin (CD62L); human neutrophils, 5 μg/ml): 22 ± 8; concentrations toxic for neutrophils (neutrophils): higher than 50 μg/ml; PLA2 activity, as measured by [3H]arachidonic acid release (phospholipase A2 (PLA2)): able to stimulate; % (inhibition, Sample 2 × 6 mm) [1, 3]: 14.7%; % (inhibition, Score) [1, 3]: 8.6%; % (inhibition, Weight/mm) [1, 3]: 35.2%; % (inhibition, Wet Weight) [1, 3]: 35.1%; Wet Weight (colon) ([1]; 2.5 mg/Kg p.o., after 24 hours of intraluminal administration in the colon): 1.689 ± 0.15; Sample 2 × 6 mm [1, 3]: 373.12 ± 48.12 mg; Score (0-10) [1, 3]: 5.2 ± 0.73; Weight/mm [1, 3]: 0.187 ± 0.02; % (inhibition, Sample 2 × 6 mm) [1, 4]: 17.9%; % (inhibition, Weight/mm) [1, 4]: 13.3%; % (inhibition, Wet Weight) [1, 4]: 13.4%; Wet Weight (colon) ([1]; 2.5 mg/Kg p.o., after 7 days of intraluminal administration in the colon): 1.354 ± 0.14; % (inhibition, Score) ([1]; 2.5 mg/Kg p.o., after 7 days of intraluminal administration, 2.5 mg/kg): 78,6%; Sample 2 × 6 mm [1, 4]: 299.62 ± 75.58 mg; Score (0-10) [1, 4]: 1.2 ± 0.58; Weight/mm [1, 4]: 0.150 ± 0.00; % (inhibition, Sample 2 × 6 mm) [1, 5]: 61.7%; % (inhibition, Score) [1, 5]: 42.9%; % (inhibition, Weight/mm) [1, 5]: 77.3%; % (inhibition, Wet Weight) [1, 5]: 77.4%; Wet Weight (colon) ([1]; 5.0 mg/Kg p.o., after 24 hours of intraluminal administration in the colon): 1.412 ± 0.06; Sample 2 × 6 mm [1, 5]: 301.10 ± 18.95 mg; Score (0-10) [1, 5]: 4.0 ± 0.32; Weight/mm [1, 5]: 0.157 ± 0.00; % (inhibition, Sample 2 × 6 mm) [1, 6]: 71.4%; % (inhibition, Weight/mm) [1, 6]: 63.0%; % (inhibition, Wet Weight) [1, 6]: 63.0%; Wet Weight (colon) ([1]; 5.0 mg/Kg p.o., after 7 days of intraluminal administration in the colon): 1.113 ± 0.14; % (inhibition, Score) ([1]; 5.0 mg/Kg p.o., after 7 days of intraluminal administration, 5 mg/kg): 71,4%; Sample 2 × 6 mm [1, 6]: 272.14 ± 53.65 mg; Score (0-10) [1, 6]: 1.4 ± 0.40; Weight/mm [1, 6]: 0.124 ± 0.01; Body weight DAY 1 ([2]; 2.5 mg/Kg p.o.): 233.5 ± 3.07 g; Body weight DAY 2 ([2]; 2.5 mg/Kg p.o.): 236.0 ± 3.42 g; Body weight DAY 4 ([2]; 2.5 mg/Kg p.o.): 240.3 ± 3.60 g; Body weight DAY 7 ([2]; 2.5 mg/Kg p.o.): 210.6 ± 3.05 g; Body weight DAY 8 ([2]; 2.5 mg/Kg p.o.): 214.8 ± 3.41 g; Body weight DAY 11 ([2]; 2.5 mg/Kg p.o.): 234.4 ± 4.53 g; Body weight DAY 12 ([2]; 2.5 mg/Kg p.o.): 241.0 ± 4.04 g; Body weight DAY 13 ([2]; 2.5 mg/Kg p.o.): 244.2 ± 4.16 g; Body weight DAY 14 ([2]; 2.5 mg/Kg p.o.): 249.4 ± 4.42 g; Body weight DAY 1 ([2]; 5.0 mg/Kg p.o): 227.4 ± 1.21 g; Body weight DAY 2 ([2]; 5.0 mg/Kg p.o): 229.1 ± 1.05 g; Body weight DAY 4 ([2]; 5.0 mg/Kg p.o): 235.9 ± 1.63 g; Body weight DAY 7 ([2]; 5.0 mg/Kg p.o): 207.4 ± 1.90 g; Body weight DAY 8 ([2]; 5.0 mg/Kg p.o): 216.2 ± 2.56 g; Body weight DAY 11 ([2]; 5.0 mg/Kg p.o): 237.6 ± 3.35 g; Body weight DAY 12 ([2]; 5.0 mg/Kg p.o): 245.2 ± 3.17 g; Body weight DAY 13 ([2]; 5.0 mg/Kg p.o): 250.6 ± 3.31 g; Body weight DAY 14 ([2]; 5.0 mg/Kg p.o): 253.6 ± 5.34 g
